One experiment concerns the target human FPR2 (Homo sapiens (Human), UniProt P25090). The experiment can be described thus: FPR2 cyclic adenosine monophosphate (cAMP) assay. In kind it is cell-based. Conditions: CHO cells overexpressing human FPR2. How it is done:
FPR2 and FPR1 Cyclic Adenosine Monophosphate (cAMP) Assays. A mixture of forskolin (5 μM final for FPR2 or 10 μM final for FPR1) and IBMX (200 μM final) were added to 384-well Proxiplates (Perkin-Elmer) pre-dotted with test compounds in DMSO (1% final) at final concentrations in the range of 0.020 nM to 100 μM. Chinese Hamster Ovary cells (CHO) overexpressing human FPR1 or human FPR2 receptors were cultured in F-12 (Ham's) medium supplemented with 10% qualified FBS, 250 μg/ml zeocin and 300 μg/ml hygromycin (Life Technologies). Reactions were initiated by adding 2,000 human FPR2 cells per well or 4,000 human FPR1 cells per well in Dulbecco's PBS (with calcium and magnesium) (Life Technologies) supplemented with 0.1% BSA (Perkin-Elmer). The reaction mixtures were incubated for 30 min at room temperature. The level of intracellular cAMP was determined using the HTRF HiRange cAMP assay reagent kit (Cisbio) according to manufacturer's instruction. Solutions of cryptate conjugated anti-cAMP and d2 flurorophore-labelled cAMP were made in a supplied lysis buffer separately. Upon completion of the reaction, the cells were lysed with equal volume of the d2-cAMP solution and anti-cAMP solution. […] The potency and activity of a compound to inhibit cAMP production was then determined by fitting to a 4-parametric logistic equation from a plot of cAMP level versus compound concentrations.

In the next experiment the target is human FPR1 (Homo sapiens (Human), UniProt P21462). The experiment can be described thus: FPR1 cyclic adenosine monophosphate (cAMP) assay. In kind it is cell-based. Conditions: CHO cells overexpressing human FPR1; inhibition of forskolin (10 μM) stimulated cAMP; read-out: hFPR1 cAMP EC50. The method, then:
FPR2 and FPR1 Cyclic Adenosine Monophosphate (cAMP) Assays. A mixture of forskolin (5 μM final for FPR2 or 10 μM final for FPR1) and IBMX (200 μM final) were added to 384-well Proxiplates (Perkin-Elmer) pre-dotted with test compounds in DMSO (1% final) at final concentrations in the range of 0.020 nM to 100 μM. Chinese Hamster Ovary cells (CHO) overexpressing human FPR1 or human FPR2 receptors were cultured in F-12 (Ham's) medium supplemented with 10% qualified FBS, 250 μg/ml zeocin and 300 μg/ml hygromycin (Life Technologies). Reactions were initiated by adding 2,000 human FPR2 cells per well or 4,000 human FPR1 cells per well in Dulbecco's PBS (with calcium and magnesium) (Life Technologies) supplemented with 0.1% BSA (Perkin-Elmer). The reaction mixtures were incubated for 30 min at room temperature. The level of intracellular cAMP was determined using the HTRF HiRange cAMP assay reagent kit (Cisbio) according to manufacturer's instruction. Solutions of cryptate conjugated anti-cAMP and d2 flurorophore-labelled cAMP were made in a supplied lysis buffer separately. Upon completion of the reaction, the cells were lysed with equal volume of the d2-cAMP solution and anti-cAMP solution. After a 1-h room temperature incubation, time-resolved fluorescence intensity was measured using the Envision (Perkin-Elmer) at 400 nm excitation and dual emission at 590 nm and 665 nm. A calibration curve was constructed with an external cAMP standard at concentrations ranging from 1 μM to 0.1 pM by plotting the fluorescent intensity ratio from 665 nm emission to the intensity from the 590 nm emission against cAMP concentrations. The potency and activity of a compound to inhibit cAMP production was then determined by fitting to a 4-parametric logistic equation from a plot of cAMP level versus compound concentrations.

[1] abbreviates: inhibition of forskolin (5 μM) stimulated cAMP, read-out: hFPR2 cAMP2 EC50.
The mark [2] stands for this setting: hFPR2 Assay, read-out: hFPR2 agonist activity EC50.

pEC50: −log10 of the molar value. Where two headings read alike, the source gives them in different places. Bounds are passed on as bounds.

Chain of human FPR2 (P25090 whole entry): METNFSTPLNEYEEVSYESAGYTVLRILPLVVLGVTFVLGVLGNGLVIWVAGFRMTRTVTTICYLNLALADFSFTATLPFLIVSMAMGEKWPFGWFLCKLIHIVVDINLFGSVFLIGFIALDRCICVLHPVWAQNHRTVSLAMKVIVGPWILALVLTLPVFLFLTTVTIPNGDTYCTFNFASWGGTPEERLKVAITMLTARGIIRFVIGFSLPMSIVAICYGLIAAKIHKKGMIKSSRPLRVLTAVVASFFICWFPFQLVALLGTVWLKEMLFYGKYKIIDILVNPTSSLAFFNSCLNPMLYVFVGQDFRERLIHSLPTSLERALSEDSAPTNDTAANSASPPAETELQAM
Chain of human FPR1 (P21462 whole entry): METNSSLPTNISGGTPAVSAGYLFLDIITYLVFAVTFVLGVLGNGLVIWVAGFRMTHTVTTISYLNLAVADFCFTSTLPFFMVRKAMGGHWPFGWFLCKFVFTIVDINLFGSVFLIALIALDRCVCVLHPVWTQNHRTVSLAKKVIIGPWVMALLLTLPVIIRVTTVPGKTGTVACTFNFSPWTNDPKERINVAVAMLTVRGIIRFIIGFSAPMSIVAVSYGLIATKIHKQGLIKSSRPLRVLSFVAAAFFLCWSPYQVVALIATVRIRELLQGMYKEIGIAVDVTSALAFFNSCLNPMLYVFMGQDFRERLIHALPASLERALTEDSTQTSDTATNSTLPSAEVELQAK

As to `COc1cc(-c2ccccc2NS(C)(=O)=O)ccc1N1CCC[C@@H](NC(=O)Nc2ccc(C(F)(F)F)cn2)C1=O` [Example 256], the pEC50 was 7.77 at human FPR2 (setting [1]) and 5.85 at human FPR1. For the molecule `N#Cc1ccccc1-c1ccc(N2CCC[C@@H](NC(=O)Nc3ccc(Cl)cc3)C2=O)cc1` [Example 76], the results for the pEC50 on human FPR2 (setting [1]) and at human FPR1 were 9.09 and 8.00, respectively.

In the case of `CS(=O)(=O)Nc1cccc(-c2ccc(N3CCC[C@@H](NC(=O)Nc4ccc(Cl)cc4)C3=O)cc2)c1F` [Example 278, (R)-N-(4′-(3-(3-(4-Chlorophenyl)ureido)-2-oxopiperidin-1-yl)-2-fluoro-[1,1′-biphenyl]-3-yl)methanesulfonainide], the pEC50 at human FPR2 (setting [2]) is no less than 8.30.

`NC(=O)c1ccccc1-c1ccc(N2CCC[C@@H](NC(=O)Nc3ccc(C(F)(F)F)cc3)C2=O)cc1` [Example 139]: the pEC50 was 8.00 on human FPR2 (setting [1]) and 6.82 on human FPR1. On the same counts, the results for `CS(=O)(=O)Nc1ccccc1-c1ccc(N2C[C@H](O)C[C@@H](NC(=O)Nc3ccc(C(F)(F)F)cc3)C2=O)cc1` [Example 213] are 9.12 and 6.96. On the same counts, the results for `CS(=O)(=O)Nc1ccccc1-c1ccc(N2CCC[C@@H](NC(=O)Nc3ccc(C(F)(F)F)cn3)C2=O)cc1` [Example 184] are 8.09 and 5.82. On the same counts, the results for `Cc1cnc(NC(=O)NC2CCCN(c3ccc(-c4ccccc4S(C)(=O)=O)cc3F)C2=O)s1` (stereo not shown) [Example 26, 1-(1-(3-fluoro-2′-(methylsulfonyl)-[1,1′-biphenyl]-4-yl)-2-oxopiperidin-3-yl)-3-(5-methylthiazol-2-yl)urea] are 6.42 and 6.68. For `COc1ccc(NC(=O)N[C@@H]2CCCN(c3ccc(-c4ccccc4NS(C)(=O)=O)cc3)C2=O)cc1` [Example 199], the pEC50 is 9.55 at human FPR2 (setting [1]) and 6.85 on human FPR1. On the same counts, the results for `NC(=O)c1ccccc1-c1ccc(N2CCC[C@@H](NC(=O)Nc3ccc(F)cc3)C2=O)cc1` [Example 174] are 6.35 and 6.05. With `N#Cc1ccccc1-c1ccc(N2CCC[C@@H](NC(=O)Nc3cnc(Cl)cn3)C2=O)c(F)c1F` [Example 275, (R)-1-(5-Chloropyrazin-2-yl)-3-(1-(2′-cyano-2,3-difluoro-[1,1′-biphenyl]-4-yl)-2-oxopiperidin-3-yl)urea], the pEC50 on human FPR2 (setting [2]) was no less than 8.30. For the molecule `CC(C)(C)NS(=O)(=O)c1ccccc1-c1ccc(N2CCC[C@@H](NC(=O)Nc3ccc(Cl)cc3)C2=O)cc1` [Example 183], the negative-log EC50 (pEC50) was 9.34 on human FPR2 (setting [1]) and 9.25 on human FPR1. As for `CS(=O)(=O)Nc1ccccc1-c1ccc(N2C[C@H](O)C[C@@H](NC(=O)Nc3ccc(Cl)cc3)C2=O)cc1` [Example 211], the pEC50 on human FPR2 (setting [1]) was 9.46; at human FPR1 it was 7.57. `Cc1ccc(NC(=O)NC2CCCN(c3ccc(-c4cccnc4)cc3)C2=O)cc1` (stereo not shown) [Example 15]: the figures for the pEC50 on human FPR2 (setting [1]) and on human FPR1 were 8.08 and 6.70, respectively. Consider `CC(N)c1cccc(-c2ccc(N3CCC[C@@H](NC(=O)Nc4ccc(C(F)(F)F)cn4)C3=O)c(F)c2F)c1` (stereo partly drawn) [Example 280, 1-((3R)-1-(3′-(1-Aminoethyl)-2,3-difluoro-[1,1′-biphenyl]-4-yl)-2-oxopiperidin-3-yl)-3-(5-(trifluoromethyl)pyridin-2-yl)urea], for which the negative logarithm of the EC50 (pEC50) at human FPR2 (setting [2]) was 7.40 to 8.30.

Regarding `O=C(Nc1ccc(Cl)cc1)NC1CCCN(c2ccc(-c3cccnc3)cc2)C1=O` (stereo not shown) [Example 16, 1-(4-chlorophenyl)-3-(2-oxo-1-(4-(pyridin-3-yl)phenyl)piperidin-3-yl)urea], the pEC50 was 8.03 on human FPR2 (setting [1]) and 6.41 on human FPR1. On to `CS(=O)(=O)Nc1ccccc1-c1ccc(N2CCC[C@@H](NC(=O)Nc3ccc(C(F)(F)F)cc3)C2=O)cc1` [Example 66], for which the pEC50 was 9.49 on human FPR2 (setting [1]) and 7.00 at human FPR1. Turning to `O=C(Nc1ccc(C(F)(F)F)cc1)N[C@@H]1CCCN(c2ccc(-c3cncc(N4CCOCC4)c3)cc2)C1=O` [Example 166], the values for the pEC50 at human FPR2 (setting [1]) and at human FPR1 were 8.10 and 6.48, respectively. In the case of `O=C(Nc1ccc(Cl)cn1)N[C@@H]1C[C@@H](O)CN(c2ccc(-c3ccccc3F)cc2)C1=O` [Example 269, 1-(5-Chloropyridin-2-yl)-3-((3R,5R)-1-(2′-fluoro-[1,1′-biphenyl]-4-yl)-5-hydroxy-2-oxopiperidin-3-yl)urea], the pEC50 on human FPR2 (setting [2]) was 7.40 to 8.30.

For `CS(=O)(=O)c1ccccc1-c1ccc(N2CCCC(NC(=O)Nc3ccc(F)cc3)C2=O)c(F)c1` (stereo not shown) [Example 28, 1-(1-(3-fluoro-2′-(methylsulfonyl)-[1,1′-biphenyl]-4-yl)-2-oxopiperidin-3-yl)-3-(4-fluorophenyl)urea], the results for the pEC50 on human FPR2 (setting [1]) and at human FPR1 were 6.25 and 5.92, respectively. For the molecule `O=C(Nc1ccc(C(F)(F)F)cc1)NC1CCCN(c2ccc(-c3ccccc3)cc2)C1=O` (stereo not shown) [Example 36, 1-(1-([1,1′-biphenyl]-4-yl)-2-oxopiperidin-3-yl)-3-(4-(trifluoromethyl)phenyl)urea], the pEC50 on human FPR2 (setting [1]) is 8.01; on human FPR1, 6.55.

Turning to `COc1ccc(NC(=O)N[C@@H]2CCCN(c3ccc(-c4ccccc4C(N)=O)cc3)C2=O)cc1Cl` [Example 176], the pEC50 at human FPR2 (setting [1]) is 6.11; on human FPR1 it was 5.92. On to `COc1cnc(NC(=O)N[C@@H]2CCCN(c3ccc(-c4ccccc4NS(C)(=O)=O)c(F)c3)C2=O)c(F)c1` [Example 259], for which the pEC50 on human FPR2 (setting [1]) is 7.66; on human FPR1 it was 5.70. `NC(=O)c1ccc(-c2ccc(N3CCCC(NC(=O)Nc4ccc(C(F)(F)F)cc4)C3=O)cc2)cc1` (stereo not shown) [Example 48, 4′-(2-oxo-3-(3-(4-(trifluoromethyl)phenyl)ureido)piperidin-1-yl)-[1,1′-biphenyl]-4-carboxamide]: the pEC50 on human FPR2 (setting [1]) was 6.25; on human FPR1, 6.03. For `CS(=O)(=O)c1ccc(-c2ccc(N3CCCC(NC(=O)Nc4ccc(C(F)(F)F)cc4)C3=O)cc2)cc1` (stereo not shown) [Example 49, 1-(1-(4′-(methylsulfonyl)-[1,1′-biphenyl]-4-yl)-2-oxopiperidin-3-yl)-3-(4-(trifluoromethyl)phenyl)urea], the figures for the negative logarithm of the EC50 (pEC50) at human FPR2 (setting [1]) and on human FPR1 were 6.07 and 5.68, respectively.

Regarding `CCOc1ncccc1-c1ccc(N2CCC[C@@H](NC(=O)Nc3ccc(C(F)(F)F)cc3)C2=O)cc1` [Example 129], the pEC50 at human FPR2 (setting [1]) was 8.03; at human FPR1, 6.77. With `COc1ccc(NC(=O)N[C@@H]2CCCN(c3ccc(-c4ccccc4NS(C)(=O)=O)cc3)C2=O)c(F)c1` [Example 197], the pEC50 at human FPR2 (setting [1]) was 9.12; at human FPR1, 6.66. On the same counts, the results for `CS(=O)(=O)Nc1ccccc1-c1ccc(N2C[C@H](O)C[C@H](NC(=O)Nc3ncc(Cl)cc3F)C2=O)cc1` [Example 214] are 8.65 and 6.80.

Regarding `O=C(Nc1ccc(Cl)cc1)N[C@@H]1CCCN(c2ccc(-c3ccccc3CO)cc2)C1=O` [Example 77], the pEC50 on human FPR2 (setting [1]) was 9.17; on human FPR1 it was 8.06. As for `CC(N)c1cccc(-c2ccc(N3CCC[C@@H](NC(=O)Nc4ccc(Cl)cc4F)C3=O)c(F)c2F)c1` (stereo partly drawn) [Example 274, 1-((3R)-1-(3′-(1-Aminoethyl)-2,3-difluoro-[1,1′-biphenyl]-4-yl)-2-oxopiperidin-3-yl)-3-(4-chloro-2-fluorophenyl)urea], on human FPR2 (setting [2]), the pEC50 is no less than 8.30.

As for `CS(=O)(=O)Nc1ccccc1-c1ccc(N2CCC[C@@H](NC(=O)Nc3ccc(Cl)cc3)C2=O)cc1OC(F)(F)F` [Example 300], the pEC50 on human FPR2 (setting [2]) is 7.40 to 8.30. Same read-out and setting: under `CS(=O)(=O)Nc1c(F)cccc1-c1ccc(N2CCC[C@@H](NC(=O)Nc3ccc(Cl)cc3)C2=O)cc1` [Example 279, (R)-N-(4′-(3-(3-(4-Chlorophenyl)ureido)-2-oxopiperidin-1-yl)-3-fluoro-[1,1′-biphenyl]-2-yl]methanesulfonamide] stands no less than 8.30.

Broadly, the pEC50 is −log10 of the EC50, conventionally taken in molar units.
